Experimental findings from ChEMBL document CHEMBL3091310, “Pseudo-cyclization through intramolecular hydrogen bond enables discovery of pyridine substituted pyrimidines as new Mer kinase inhibitors” (J Med Chem, 2013) are described below.

For data set [1], the target named is T1, Tyrosine-protein kinase receptor TYRO3 (Homo sapiens, UniProt Q06418).
T1 sequence (Q06418 whole entry): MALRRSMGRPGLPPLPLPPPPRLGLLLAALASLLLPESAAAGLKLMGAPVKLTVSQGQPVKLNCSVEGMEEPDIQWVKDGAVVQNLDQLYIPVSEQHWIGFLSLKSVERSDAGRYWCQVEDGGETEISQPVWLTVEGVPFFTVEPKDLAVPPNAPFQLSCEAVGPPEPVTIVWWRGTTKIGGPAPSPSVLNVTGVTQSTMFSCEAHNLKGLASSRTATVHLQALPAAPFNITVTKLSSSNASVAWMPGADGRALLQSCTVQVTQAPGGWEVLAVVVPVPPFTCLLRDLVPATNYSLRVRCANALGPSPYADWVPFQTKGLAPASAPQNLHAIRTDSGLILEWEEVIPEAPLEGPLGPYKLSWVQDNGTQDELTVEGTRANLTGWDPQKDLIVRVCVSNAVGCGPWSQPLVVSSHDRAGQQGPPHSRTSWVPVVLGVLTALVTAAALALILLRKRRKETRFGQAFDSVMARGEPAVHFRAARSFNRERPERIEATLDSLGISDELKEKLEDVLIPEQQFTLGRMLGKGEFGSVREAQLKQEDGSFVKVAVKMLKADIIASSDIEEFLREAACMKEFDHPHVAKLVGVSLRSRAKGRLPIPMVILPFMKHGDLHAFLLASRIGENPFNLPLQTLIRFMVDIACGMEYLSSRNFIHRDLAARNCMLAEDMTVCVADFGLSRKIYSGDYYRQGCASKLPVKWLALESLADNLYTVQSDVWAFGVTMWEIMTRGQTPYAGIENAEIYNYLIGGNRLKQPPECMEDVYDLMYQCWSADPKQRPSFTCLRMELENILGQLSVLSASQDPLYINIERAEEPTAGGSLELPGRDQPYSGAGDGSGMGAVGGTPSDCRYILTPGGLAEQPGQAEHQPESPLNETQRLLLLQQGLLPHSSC

Data set [2] deals with T2, Tyrosine-protein kinase receptor UFO (Homo sapiens, UniProt P30530).
T2 sequence (P30530 whole entry): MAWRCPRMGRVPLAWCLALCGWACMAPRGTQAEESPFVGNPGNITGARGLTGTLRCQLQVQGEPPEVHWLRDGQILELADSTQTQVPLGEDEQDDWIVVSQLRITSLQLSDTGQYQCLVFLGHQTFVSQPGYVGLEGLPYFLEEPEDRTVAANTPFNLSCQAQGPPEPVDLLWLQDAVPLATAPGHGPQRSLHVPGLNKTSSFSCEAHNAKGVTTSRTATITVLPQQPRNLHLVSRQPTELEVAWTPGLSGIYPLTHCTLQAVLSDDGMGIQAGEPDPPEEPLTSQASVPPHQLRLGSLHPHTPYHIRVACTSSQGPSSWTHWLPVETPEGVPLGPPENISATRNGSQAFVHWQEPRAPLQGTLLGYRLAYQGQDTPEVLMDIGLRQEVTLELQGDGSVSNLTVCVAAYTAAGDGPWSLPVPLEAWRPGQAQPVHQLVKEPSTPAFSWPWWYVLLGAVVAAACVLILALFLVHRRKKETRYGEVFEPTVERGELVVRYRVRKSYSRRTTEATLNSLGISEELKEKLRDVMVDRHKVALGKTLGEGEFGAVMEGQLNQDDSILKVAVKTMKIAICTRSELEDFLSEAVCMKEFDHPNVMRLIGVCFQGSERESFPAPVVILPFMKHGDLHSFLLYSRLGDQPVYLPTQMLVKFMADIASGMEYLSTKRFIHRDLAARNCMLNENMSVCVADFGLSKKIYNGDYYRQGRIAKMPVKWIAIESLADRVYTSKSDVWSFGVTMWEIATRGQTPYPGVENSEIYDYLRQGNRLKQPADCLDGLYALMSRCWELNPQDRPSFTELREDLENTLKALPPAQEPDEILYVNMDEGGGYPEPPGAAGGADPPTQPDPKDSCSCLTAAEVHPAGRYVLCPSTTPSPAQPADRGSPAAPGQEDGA

The species entered for a further data set is Mus musculus. The settings on record: in vivo, po, 3 mg/kg.
Data set [3] is described as follows: in vivo. The settings on record: mouse, po, 3 mg/kg.
Data set [4] can be described thus: in vivo. The settings on record: mouse, po, 3 mg/kg. This is another data set of the same source.
Data set [5] is described as follows: in vivo. The settings on record: mouse, po, 3 mg/kg. This is another data set of the same source.
Data set [6] is described as follows: in vivo. The following applies: mouse, iv, 3 mg/kg.
Data set [7] is described as follows: in vivo. The settings on record: mouse, iv, 3 mg/kg. The source holds these as a separate data set.
A short description of data set [8]: in vivo. The following applies: mouse, iv, 3 mg/kg. The source holds these as a separate data set.
Data set [9] is described as follows: in vivo. The settings on record: mouse, iv, 3 mg/kg. The source holds these as a separate data set.
Data set [10] is described as follows: in vivo. The settings on record: mouse, iv, 3 mg/kg. The source holds these as a separate data set.

Turning to `CSc1ncc(-c2ccccn2)c(N[C@H]2CC[C@H](O)CC2)n1`, the IC50 in data set [1] and in data set [2] was above 30 µM each time.

Consider `CCCCNc1nccc(N[C@H]2CC[C@H](O)CC2)n1`, for which the IC50 in [1] and in [2] was above 30 µM in each case.

Consider `CCCCNc1ncc(-c2ccc(CNC3CC3)cn2)c(N[C@H]2CC[C@H](O)CC2)n1`, for which, in the data set listed under Mus musculus, the F is 27%. In addition, the figures for the AUC(0-t) in “in vivo [3]” and in “in vivo [9]” were 103 ng·h/mL and 376 ng·h/mL, respectively. The Cmax in the data set “in vivo [4]” turned out to be 33 ng/mL; in the data set “in vivo [8]”, 277 ng/mL. In addition, the Tmax in the data set “in vivo [5]” was 30 min. The same compound had a Vd in the data set “in vivo [6]” of 39 L/kg. This compound registered a clearance in “in vivo [7]” of 130 mL/min/kg. The half-life in “in vivo [10]” was 283 min.

Compound `O[C@H]1CC[C@H](Nc2nc(NCc3ccccc3)ncc2-c2ccccn2)CC1` came in with an IC50 in data set [2] above 30 µM.

In turn, `CCCCNc1ncc(-c2ccc(F)cc2)c(N[C@H]2CC[C@H](O)CC2)n1` yielded an IC50 in data set [1] above 30 µM.

In the data set listed under Mus musculus, `CCCCNc1ncc(-c2ccc(S(=O)(=O)N3CCOCC3)cn2)c(N[C@H]2CC[C@H](O)CC2)n1` yielded an F of 1.3%. For the same compound, the AUC(0-t) is 4.68 ng·h/mL in the data set “in vivo [3]” and 355 ng·h/mL in “in vivo [9]”. For the same compound, the Cmax was determined as 13.9 ng/mL in “in vivo [4]” and 1980 ng/mL in the data set “in vivo [8]”. For the same compound, in “in vivo [5]”, the Tmax was 15 min. In the data set “in vivo [6]”, this compound gave a Vd of 2.9 L/kg. Further, the clearance in “in vivo [7]” is 134 mL/min/kg. Besides, in “in vivo [10]”, the half-life is 54.6 min.

The compound `CCCCNc1ncc(-c2ccc(CN3CCOCC3)cn2)c(N[C@H]2CC[C@H](O)CC2)n1` displayed a F in the data set filed under Mus musculus of 23%. Moreover, the AUC(0-t) in the data set “in vivo [3]” stood at 180 ng·h/mL; in the data set “in vivo [9]” it was 794 ng·h/mL. Also, the values for the Cmax in the data set “in vivo [4]” and in the data set “in vivo [8]” were 162 ng/mL and 1980 ng/mL, respectively. For the same compound, the Tmax in the data set “in vivo [5]” was 15 min. This compound had a Vd in “in vivo [6]” of 3.9 L/kg. This compound also yielded a clearance in “in vivo [7]” of 62.2 mL/min/kg. Also, the half-life in “in vivo [10]” was 95.4 min.

With `CCCCNc1ncc(-c2ccc(CN3CCC(F)(F)CC3)cn2)c(N[C@H]2CC[C@H](O)CC2)n1`, the F in the data set filed under Mus musculus was 55%. Besides, the figures for the AUC(0-t) in “in vivo [3]” and in “in vivo [9]” were 210 ng·h/mL and 381 ng·h/mL, respectively. In addition, the Cmax in “in vivo [4]” turned out to be 71 ng/mL; in the data set “in vivo [8]”, 737 ng/mL. The Tmax in the data set “in vivo [5]” was 15 min. For the same compound, the Vd in “in vivo [6]” turned out to be 13.7 L/kg. Also, the clearance in the data set “in vivo [7]” was 123 mL/min/kg. Also, the half-life in the data set “in vivo [10]” is 178 min.

By IC50 is commonly meant the concentration at which inhibition is half-maximal. Low values mean greater potency, high ones weaker potency. The AUC(0-t) is exposure summed from dosing to a finite time, without extrapolation to infinity. Broadly, the Cmax is the highest concentration seen after dosing. As usually defined, the Tmax is the time from dosing to the highest level. In general, Vd refers to a proportionality between amount in the body and measured concentration, not a real space. Read a high Vd as wide distribution into tissue. Usually clearance stands for the rate of elimination divided by the concentration. By half-life is commonly meant the time in which the quantity being followed falls by half.
